Source: patent publication EP0177414A1, “Jodized triaminobenzene compounds, process for their preparation and their use in contrast products” (GUERBET S.A., priority 1984, dated 1986)
Values after ≈ are worked out from the molar mass of the structure shown.

Tests used:
[1] = Stability to sterilisation; assay type: physicochemical; conditions: treated at 121 °C for 10 mn
[2] = Neurotoxicity: acute toxicity by intracerebral administration; design: species or system souris; conditions: mouse, in vivo, female SWISS OF1 mice, toxicity noted 7 days after administration, read-out: DL50 IC
Source text: - la toxicité aiguë des composés a été déterminée sur souris femelles (poids 20 g) de souche SWISS OF1 par administration intra-cérébrale selon la technique décrite par HOLEY et Mc CQRMICK dans :
Pharmacological effects produced by intracerebral injection of drugs in the conscious mouse BRIT.J.PHARMACOL. 12, 2. 1957.
5 animaux sont utilisés par dose, les volumes administrés sont de 0,05 cm^3 - 0,07 cm^3 - 0,10 cm^3 par souris soit 2,5 - 3,5 et 5 cm^3 par kg, avec des vitesses d'injection lentes.
La toxicité (DL50) est notée 7 jours après l'administration. 2) Osmolalité

[3] = Osmolality by cryoscopy (FISKE-OS osmometer); assay type: physicochemical
Source text: (§1) - l'osmolalité exprimée en mosmoles par kg, est déterminée par cryoscopie à l'aide d'un osmomètre de type FISKE-OS Les résultats sont donnés dans le tableau suivant où l'on a également donné 1a solubilité des composés

[4] = Solubility; assay type: physicochemical; conditions: read-out: Solubilité
Source text: as §1

Structure (SMILES) | stables à la stérilisation [1] | LD50 at 168 h [2] | Osmolalité [3] | solubility [4]
CC(=O)N(CC(O)CO)c1c(I)c(NC(=O)C(C)O)c(I)c(N(CC(O)CO)C(C)=O)c1I (centres unmarked) [Exemple 9, 2,4,6-triiodo-1-(2-hydroxypropionyl-amino)-3,5-bis [N-(2,3-dihydroxy propyl)acétamido]benzène] | ne présentent pas de modifications | 3500 µmol/kg | 690 mosmol par kg | 1000 mM (≈ 805 mg/mL)
CC(=O)N(CC(O)CO)c1c(I)c(N(CC(O)CO)C(C)=O)c(I)c(N(CC(O)CO)C(C)=O)c1I (centres unmarked) [Exemple 3, 2,4,6-triiodo-1,3,5-tris [N-(2,3-dihydroxy propyl)acétamido]benzène] | ne présentent pas de modifications | 4000 µmol/kg | 630 mosmol par kg | 1000 mM (≈ 849 mg/mL)
COCC(=O)Nc1c(I)c(N(CC(O)CO)C(C)=O)c(I)c(N(CC(O)CO)C(C)=O)c1I (centres unmarked) [Exemple 8] | ne présentent pas de modifications | 3300 µmol/kg | – | 940 mM (≈ 757 mg/mL)
